Source: paper PMC6009855, “Design and synthesis of naphthalimide group-bearing thioglycosides as novel β-N-acetylhexosaminidases inhibitors” (Journal of Enzyme Inhibition and Medicinal Chemistry, 2018)
Like-named read-outs stand apart in the source and are kept apart here.

Legend:
hsHexB [1] = target: T1, hsHexB (Homo sapiens, UniProt P07686); assay: Inhibitory potency assay, end-point, 4-MU-GlcNAc substrate, pH 4.0; format: biochemical; conditions: for Inhibition potency against hsHexB (in words): each compound at 20 µM, Figure 3; for Ki: 4-MU-GlcNAc, pH 4.0, 30 °C, 30 min, read-out: Ki against hsHexB
T1 construct: His6; made in house; host or cells: Pichia pastoris GS115 (pPIC9 vector)
T1 sequence (P07686 122-556): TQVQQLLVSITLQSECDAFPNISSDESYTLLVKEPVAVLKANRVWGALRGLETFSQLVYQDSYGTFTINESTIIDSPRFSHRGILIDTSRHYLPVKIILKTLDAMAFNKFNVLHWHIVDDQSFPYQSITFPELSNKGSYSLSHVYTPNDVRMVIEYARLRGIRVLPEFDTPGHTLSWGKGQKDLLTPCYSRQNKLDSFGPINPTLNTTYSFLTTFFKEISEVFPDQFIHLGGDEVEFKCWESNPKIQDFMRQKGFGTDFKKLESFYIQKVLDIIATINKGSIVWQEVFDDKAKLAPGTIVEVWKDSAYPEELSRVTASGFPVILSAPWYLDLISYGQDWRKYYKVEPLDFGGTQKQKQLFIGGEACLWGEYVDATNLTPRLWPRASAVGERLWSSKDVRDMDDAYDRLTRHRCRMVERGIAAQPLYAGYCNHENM
Experimental: (§1) Gene encoding hsHexB, which was engineered to contain a His6-tagged fusion protein, was cloned into pPIC9 expression vector (Invitrogen, Carlsbad, CA, USA), and subsequently transformed into Pichia pastoris GS115 (Invitrogen, Carlsbad, CA, USA) by electroporation. The cells were first cultured in BMGY broth (1% yeast extract, 1% glycerol, 2% peptone, 0.2% biotin, 1.34% yeast nitrogen, 0.1 M potassium phosphate, pH 6.0) at 30 °C. Methanol was added into the culture daily at a final concentration of 1% (v/v). When OD600 value reached 2.0 (after ∼120 h), the cells were harvested by centrifugation at 6000g for 10 min. While the pellet was resuspended in BMMY broth (1% yeast extract, 1% methanol, 2% peptone, 0.2% biotin, 1.34% yeast nitrogen, 0.1 M potassium phosphate, pH 6.0), the supernatant was subjected to ammonium sulfate precipitation (75% saturation) at 4 °C, in which the precipitate was further resuspended in distilled water and then desalted in buffer A (20 mM sodium phosphate, 0.5 M sodium chloride, pH 7.4). Subsequently, the resuspension solution was centrifuged at 17,000g for 30 min at 4 °C and passed through a 0.2-µm filter prior to loading onto a 5-ml HisTrap FF affinity column (GE Healthcare, Chicago, IL, USA), which was pre-equilibrated with buffer A. To remove nonspecific binding proteins, the column was sequentially washed with buffer A-containing 20 mM imidazole and buffer A-containing 50 mM imidazole. Finally, the target protein was eluted with buffer B (20 mM sodium phosphate, 0.5 M sodium chloride, 150 mM imidazole, pH 7.4). Purity of the protein was further analyzed by SDS–PAGE. hOGA was overexpressed in Escherichia coli BL21(DE3) and purified as described previously.
(§2) Potencies of hsHexB and hOGA were assayed by end-point experiment, in which 4-methylumbelliferyl N-acetyl-β-D-glucosaminide (4-MU-GlcNAc; Sigma, St. Louis, MO, USA) was used as a substrate. Various concentrations of inhibitors and substrates (50 µM, 25 µM, and 12.5 µM) were mixed with Britton-Robinson buffer (hsHexB, pH 4.0; hOGA, pH 6.0), dimethylsulfoxide at a final concentration of 2%, enzyme, and 40 µM 4-MU-GlcNAc in a reaction of 100-µl final volume, and incubated at 30 °C for 30 min. Then, the enzymatic reaction was terminated by the addition of 100 µl of 0.5 M sodium carbonate solution. The fluorescence of the released 4-methylumbelliferone was quantified (excitation at 366 nm, emission at 445 nm) on a Varioskan Flash microplate reader (Thermo Fisher Scientific, Waltham, MA, USA). To determine the inhibition constant (Ki), the reciprocal plots of 1/velocity versus inhibitor were constructed. Data analysis was performed using Graph Pad Prism software (Graph Pad Software Inc., San Diego, CA, USA).

hsHexA = tested on: hsHexA; parameters: method as in PMID 17317569; conditions: read-out: IC50 against hsHexA; cited from earlier work
[2] = tested on: GH20 and GH84 β-N-acetylhexosaminidases; parameters: method as in PMID 22280348, PMID 23688083; conditions: cited from earlier work
hsHexB [3] = target: T1, hsHexB; parameters: method as in PMID 20187655; conditions: cited from earlier work
hsHex = target: hsHex; parameters: method as in PMID 24900704; conditions: read-out: Ki against hsHex; cited from earlier work
hOGA = target: T2, hOGA (Homo sapiens, UniProt O60502); assay: Inhibitory potency assay, end-point, 4-MU-GlcNAc substrate, pH 6.0; format: biochemical; conditions: for Ki: 4-MU-GlcNAc, pH 6.0, 30 °C, 30 min, read-out: Ki against hOGA; for Inhibition potency against hOGA (in words): each compound at 20 µM, Figure 3
T2 construct: made in house; host or cells: Escherichia coli BL21(DE3)
T2 sequence (O60502 1-916): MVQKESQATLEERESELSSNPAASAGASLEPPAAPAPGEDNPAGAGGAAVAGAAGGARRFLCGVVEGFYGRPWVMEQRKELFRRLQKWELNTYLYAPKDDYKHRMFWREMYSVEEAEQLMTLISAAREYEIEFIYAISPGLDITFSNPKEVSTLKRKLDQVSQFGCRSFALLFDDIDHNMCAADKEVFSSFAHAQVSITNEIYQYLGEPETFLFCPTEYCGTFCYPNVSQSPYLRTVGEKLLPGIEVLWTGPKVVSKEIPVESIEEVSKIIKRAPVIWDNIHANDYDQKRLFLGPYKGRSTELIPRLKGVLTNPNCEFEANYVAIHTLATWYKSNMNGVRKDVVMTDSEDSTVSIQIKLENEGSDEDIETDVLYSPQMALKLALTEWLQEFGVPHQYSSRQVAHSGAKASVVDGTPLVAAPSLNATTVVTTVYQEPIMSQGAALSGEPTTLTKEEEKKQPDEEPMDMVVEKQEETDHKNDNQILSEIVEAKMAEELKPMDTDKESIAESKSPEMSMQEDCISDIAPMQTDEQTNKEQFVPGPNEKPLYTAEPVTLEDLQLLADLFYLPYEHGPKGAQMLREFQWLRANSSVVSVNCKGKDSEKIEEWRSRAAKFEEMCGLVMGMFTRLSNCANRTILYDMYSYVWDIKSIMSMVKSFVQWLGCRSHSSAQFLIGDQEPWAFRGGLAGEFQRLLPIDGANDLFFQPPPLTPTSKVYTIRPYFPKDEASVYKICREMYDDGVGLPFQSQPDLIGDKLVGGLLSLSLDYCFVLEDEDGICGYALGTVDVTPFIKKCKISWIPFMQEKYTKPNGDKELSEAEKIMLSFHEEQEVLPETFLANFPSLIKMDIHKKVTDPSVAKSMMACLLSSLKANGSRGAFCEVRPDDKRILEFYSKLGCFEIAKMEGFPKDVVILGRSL
Experimental: as §1, §2

[4] = target: GH20 insect β-N-acetylhexosaminidase OfHex1; parameters: method as in PMID 25155420; conditions: read-out: Ki against OfHex1; cited from earlier work

2-[2-[2-[(2-acetamido-β-D-glucopyranosyl)thio]ethylamino]ethyl]-1H-benzo[de] isoquinoline-1,3(2H)-dione [compound 15a]
Inhibition potency against hsHexB (in words) (hsHexB [1]): highest potencies

O=C1c2cccc3cccc(c23)C(=O)N1CCNCCN1C(=O)c2cccc3cccc(c23)C1=O [M-31850]
IC50 (hsHexA): 6 µM

CC1=N[C@@H]2[C@@H](O)[C@H](O)[C@@H](CO)O[C@@H]2S1 [NAG-thiazoline]
Selectivity between GH20 and GH84 β-N-acetylhexosaminidases [2]: non-selectivity

CC(=O)N[C@H]1c2nc(CC(=O)O)cn2[C@H](CO)[C@H](O)[C@@H]1O [Nagstatin]
Selectivity between GH20 and GH84 β-N-acetylhexosaminidases [2]: non-selectivity

CC(=O)N[C@H]1/C(=N/OC(=O)Nc2ccccc2)O[C@H](CO)[C@@H](O)[C@@H]1O [PUGNAc]
Selectivity between GH20 and GH84 β-N-acetylhexosaminidases [2]: non-selectivity

COc1ccc(CN(CCCCCCCN2C[C@H](NC(C)=O)[C@@H](O)[C@H](O)[C@H]2CO)Cc2ccc(OC)cc2)cc1 [compound 4 (5)]
Selectivity for hsHexB toward GH84 hOGA (hsHexB [3]): 250,000 fold
Ki (hsHexB [3]; read-out: Ki against hsHexB): 0.00069 µM

COc1ccc(CNCCN2C(=O)c3cccc4cccc(c34)C2=O)cc1 [compound 7a (7)]
Ki (hsHex): 0.63 µM

CC(=O)N[C@@H]1[C@@H](O)[C@H](O)[C@@H](CO)O[C@H]1SCCNCCCN1C(=O)c2cccc3cccc(c23)C1=O [compound 15b]
melting point: 218 to 220 °C
Ki (hsHexB [1]; Dixon plots): 30.4 µM
Type of inhibition of hOGA (hOGA; Dixon plots, Figure 4B): competitive inhibitors
Ki (hOGA; Dixon plots): 3.76 µM
Inhibition potency against hOGA (in words) (hOGA): highest potency

CC(=O)N[C@@H]1[C@@H](O)[C@H](O)[C@@H](CO)O[C@H]1SCCCNCCN1C(=O)c2cccc3cccc(c23)C1=O [compound 15d]
melting point: 230 to 232 °C
Inhibition potency against hsHexB (in words) (hsHexB [1]): highest potencies

CC(=O)N[C@@H]1[C@@H](O)[C@H](O)[C@@H](CO)O[C@H]1SCCCCCNCCN1C(=O)c2cccc3cccc(c23)C1=O [compound 15g]
Inhibition potency against hsHexB (in words) (hsHexB [1]): highest potencies

CC(=O)N[C@@H]1[C@@H](O)[C@H](O)[C@@H](CO)O[C@H]1SCCCCCCNCCN1C(=O)c2cccc3cccc(c23)C1=O [compound 15j]
Type of inhibition of hsHexB (hsHexB [1]; Dixon plots, Figure 4A): competitive inhibitors
Ki (hsHexB [1]; Dixon plots): 0.91 µM
Inhibition potency against hsHexB (in words) (hsHexB [1]): highest potencies
Ki (hOGA; Dixon plots): > 100 µM

CC(=O)N[C@@H]1[C@@H](O)[C@H](O)[C@@H](CO)O[C@H]1SCCCCCCNCCCN1C(=O)c2cccc3cccc(c23)C1=O [compound 15k]
Inhibition potency against hsHexB (in words) (hsHexB [1]): considerably decreased

CC(=O)N[C@@H]1[C@@H](O)[C@H](O)[C@@H](CO)O[C@H]1SCCCCCCNCCCCN1C(=O)c2cccc3cccc(c23)C1=O [compound 15l]
Inhibition potency against hsHexB (in words) (hsHexB [1]): considerably decreased

CC(=O)N[C@@H]1[C@@H](O)[C@H](O)[C@@H](CO)O[C@H]1SCCCCS[C@@H]1O[C@H](CO)[C@@H](O)[C@H](O)[C@H]1NC(C)=O [compound 17, 1,4-bis[(2-acetamido-2-deoxy-β-D-glucopyranosyl)thio] butane]
melting point: 236 to 238 °C
Inhibition potency against hsHexB (in words) (hsHexB [1]): hardly showed activity
Inhibition potency against hOGA (in words) (hOGA): hardly showed activity

Cc1nnc(CNCCN2C(=O)c3cccc4cccc(c34)C2=O)s1 [compound Q1]
Ki [4]: 4.28 µM
